“Also recorded” adds a separate entry of the source.
Legend:
[1] = test system: 3T3 cells not expressing N-cadherin, N-CAM, or L1 (control cells); test: Neurite outgrowth of mouse cerebellar neurons on control 3T3 cells (Example 2); assay type: cell-based; conditions: 500 μg/ml
Procedure: Neurons were cultured on monolayers of 3T3 cells transfected with cDNA encoding N-cadherin essentially as described by Doherty and Walsh, Curr. Op. Neurobiol. 4:49-55, 1994; Williams et al., Neuron 13:583-594, 1994; Hall et al., Cell Adhesion and Commun. 3:441-450, 1996; Doherty and Walsh, Mol. Cell. Neurosci. 8:99-111, 1994; Safell et al., Neuron 18:231-242, 1997. Briefly, monolayers of control 3T3 fibroblasts and 3T3 fibroblasts that express N-cadherin were established by overnight culture of 80,000 cells in individual wells of an 8-chamber well tissue culture slide. 3000 cerebellar neurons isolated from post-natal day 3 mouse brains were cultured for 18 hours on the various monolayers in control media (SATO/2%FCS), or media supplemented with various concentrations of the cyclic peptide N-Ac-CHAVC-NH2 (SEQ ID NO:10) or a control peptide without the HAV sequence (N-Ac-CHGVC-NH2 (SEQ ID NO:20)). The cultures were then fixed and stained for GAP43 which specifically binds to the neurons and their neurites. The length of the longest neurite on each GAP43 positive neuron was then measured by computer assisted morphometry.

[2] = test system: A1N4 human breast epithelial cells; test: Disruption of breast epithelial cell adhesion, E-cadherin immunostaining; assay type: cell-based; conditions: 500 μg/mL, 48 hours
Procedure: A1N4 human breast epithelial cells (kindly provided by Martha Stampfer, Lawrence Berkeley Laboratory, Berkeley, Calif.) were plated on glass coverslips and cultured in F12/DME containing 0.5% FCS and 10 ng/mL EGF for 24 hours. Fresh medium containing the cyclic peptides (final concentration 500 μg/mL media) N-Ac-CHAVC-NH2 (SEQ ID NO:10) or N-Ac-CHGVC-NH2 (SEQ ID NO:20) was then added. Following 24 hours of culture in the presence of the peptides, the medium was removed and fresh medium containing the peptides was added. The cells were fixed 24 hours later with cold methanol and stored in phosphate buffered saline (PBS).
Coverslips were blocked for 1 hour in 3% ovalbumin/PBS and incubated for a further 1 hour in the presence of 1 μg/mL mouse anti-E-cadherin antibody (Zymed, Gaithersburg, Md.). Primary and secondary antibodies were diluted in PBS containing 6% normal goat serum. Following incubation in the primary antibody, coverslips were washed 3 times for 5 minutes each in PBS and incubated for 1 hour with goat anti-mouse conjugated to fluorescein (Kiekegard and Perry, South San Francisco, Calif.) diluted 1:100. Following a further wash in PBS (3×5 minutes) coverslips were mounted in Vectashield (Vector Labs, Burlingame, Calif.) and viewed with a Zeiss infinity corrected microscope.

[3] = test system: MDA-MB231; assay type: cell-based, human; conditions: 3 h
[4] = test system: NRK cells; test: Disruption of normal rat kidney (NRK) cell adhesion and E-cadherin immunostaining; assay type: cell-based; conditions: 1 mg/mL, 48 hours
Procedure: Within another such assay, the effect of a modulating agent on normal rat kidney (NRK) cells may be evaluated. According to a representative procedure, NRK cells (ATCC #1571-CRL) may be plated at 10-20,000 cells per 35 mm tissue culture flasks containing DMEM with 10% FCS and sub-cultured periodically (Laird et al., J. Cell Biol. 131:1193-1203, 1995). Cells may be harvested and replated in 35 mm tissue culture flasks containing 1 mm coverslips and incubated until 50-65% confluent (24-36 hours). At this time, coverslips may be transferred to a 24-well plate, washed once with fresh DMEM and exposed to modulating agent at a concentration of, for example, 1 mg/mL for 24 hours. Fresh modulating agent may then be added, and the cells left for an additional 24 hours. Cells may be fixed with 100% methanol for 10 minutes and then washed three times with PBS. Coverslips may be blocked for 1 hour in 2% BSA/PBS and incubated for a further 1 hour in the presence of mouse anti-E-cadherin antibody (Transduction Labs, 1:250 dilution). Primary and secondary antibodies may be diluted in 2% BSA/PBS. Following incubation in the primary antibody, coverslips may be washed three times for 5 minutes each in PBS and incubated for 1 hour with donkey anti-mouse antibody conjugated to fluorescein (diluted 1:200). Following further washes in PBS (3×5 min) coverslips can be mounted and viewed by confocal microscopy.
In the absence of modulating agent, NRK cells form characteristic tightly adherent monolayers with a cobblestone morphology in which cells display a polygonal shape. NRK cells that are treated with a modulating agent that disrupts E-cadherin mediated cell adhesion may assume a non-polygonal and elongated morphology (i.e., a fibroblast-like shape) within 48 hours of treatment with 1 mg/mL of modulating agent. Gaps appear in confluent cultures of such cells. In addition, 1 mg/mL of such a modulating agent reproducibly induces a readily apparent reduction in cell surface staining of E-cadherin, as judged by immunofluorescence microscopy (Laird et al., J. Cell Biol. 131:1193-1203, 1995), of at least 75% within 48 hours.
NRK cells (ATCC #1571-CRL) were plated at 10-20,000 cells per 35 mm tissue culture flasks containing DMEM with 10% FCS and sub-cultured periodically (Laird et al., J. Cell Biol. 131:1193-1203, 1995). Cells were harvested and replated in 35 mm tissue culture flasks containing […] coverslips and incubated until 50-65% confluent (24-36 hours). At this time, coverslips were transferred to a 24-well plate, washed once with fresh DMEM and exposed to cyclic peptide solutions (N-Ac-CHAVC-NH2 (SEQ ID NO:10) and N-Ac-CHGVC-NH2 (SEQ ID NO:20)) at a concentration of 1 mg/mL for 24 hours. Fresh peptide solutions were then added and the cells were left for an additional 24 hours. […]

Structure (SMILES): CC(=O)N[C@H]1CSSC[C@@H](C(N)=O)NC(=O)[C@H](C(C)C)NC(=O)[C@H](C)NC(=O)[C@H](Cc2c[nH]cn2)NC1=O [N-Ac-CHAVC-NH2, N-Ac-Cys-His-Ala-Val-Cys-NH2]
- effect on neurite outgrowth on control 3T3 cells [1]: did not inhibit neurite outgrowth
- E-cadherin staining and monolayer of A1N4 cells [2]: reduced E-cadherin staining with a stitched appearance; also recorded: distribution of E-cadherin is non-contiguous
- IC50 [3]: > 100 µM
- E-cadherin expression in NRK cells (immunofluorescence) [4]: greatly reduced levels of E-cadherin
- effect on NRK cell adhesion [4]: disrupted NRK cell adhesion; also recorded: retract from one another

Structure (SMILES): CC(=O)N[C@H]1CSSC[C@@H](C(N)=O)NC(=O)[C@H](C(C)C)NC(=O)CNC(=O)[C@H](Cc2c[nH]cn2)NC1=O [N-Ac-CHGVC-NH2, reference compound]
- IC50 [3]: > 100 µM
- E-cadherin expression in NRK cells (immunofluorescence) [4]: expressed E-cadherin
- effect on NRK cell adhesion [4]: had no affect on cell adhesion
